Measurements published in patent US8410080B1, “2-methylene-vitamin D analogs and their uses” (Wisconsin Alumni Research Foundation, priority 2011, dated 2013).
“Also recorded” adds a separate entry of the source. Like-named read-outs stand apart in the source and are kept apart here.

Columns and labels:
[1] = tested on: 24-hydroxylase (24Ohase) gene promoter; assay: In vitro transcription assay, luciferase reporter in ROS 17/2.8 (bone) cells; type: cell-based; conditions: for EC50: ROS 17/2.8 cells, 24-hydroxylase promoter-luciferase, sixteen hours after dosing, read-out: EC50, transcriptional activity in bone cells; for potency relative to 1,25(OH)2D3 in increasing transcription of the 24-hydroxylase gene: bone cells, fold more potent than 1,25(OH)2D3
Description: Transcription activity was measured in ROS 17/2.8 (bone) cells that were stably transfected with a 24-hydroxylase (24Ohase) gene promoter upstream of a luciferase reporter gene (Arbour et al., 1998). Cells were given a range of doses. Sixteen hours after dosing the cells were harvested and luciferase activities were measured using a luminometer. RLU=relative luciferase units.

[2] = Bone calcium mobilization (serum calcium) in vitamin D-deficient rats; type: in vivo, rat; conditions: for mobilization of bone calcium at 780 pmol/day: 780 pmol/day for 4 consecutive days; for mobilization of bone calcium at 780 pmol/day / bone calcium mobilization activity (serum calcium), in words: 0.02% Ca diet; for bone calcium mobilization activity (serum calcium), in words: dosages tested; for potency relative to the native hormone in releasing bone calcium stores: low calcium diet (0.02%), four consecutive ip doses
Description: (§1) Male, weanling Sprague-Dawley rats were placed on Diet 11 (Suda et al, J. Nutr. 100:1049, 1970) (0.47% Ca)+vitamins AEK for one week followed by Diet 11 (0.02% Ca)+vitamins AEK for 3 weeks. The rats were then switched to the same diet containing 0.47% Ca for one week followed by two weeks on the same diet containing 0.02% Ca. Dose administration began during the last week on 0.02% calcium diet. Four consecutive ip doses were given approximately 24 hours apart. Twenty-four hours after the last dose, blood was collected from the severed neck and the concentration of serum calcium determined by atomic absorption spectrometry as a measure of bone calcium mobilization. The first 10 cm of the intestine was also collected for intestinal calcium transport analysis using the everted gut sac method.

[3] = Intestinal calcium transport, everted gut sac method, in vitamin D-deficient rats; type: in vivo, rat; conditions: compared to 1,25(OH)2D3
Description: as §1

[4] = tested on: Human promyelocytic leukemia (HL60) cells; assay: HL-60 differentiation (nitro blue tetrazolium reduction); type: cell-based; conditions: for potency on HL-60 cell differentiation compared to 1,25(OH)2D3, in words: HL-60 cells; for EC50: HL60 cells, four days of treatment, read-out: EC50, ability to promote HL60 differentiation
Description: Serial dilutions were prepared so that a range of drug concentrations could be tested without changing the final concentration of ethanol (≦0.2%) present in the cell cultures.
Human promyelocytic leukemia (HL60) cells were grown in RPMI-1640 medium containing 10% fetal bovine serum. The cells were incubated at 37° C. in the presence of 5% CO2.
HL60 cells were plated at 1.2×10^5 cells/ml. Eighteen hours after plating, cells in duplicate were treated with drug. Four days later, the cells were harvested and a nitro blue tetrazolium reduction assay was performed (Collins et al., 1979; J. Exp. Med. 149:969-974). The percentage of differentiated cells was determined by counting a total of 200 cells and recording the number that contained intracellular black-blue formazan deposits. Verification of differentiation to monocytic cells was determined by measuring phagocytic activity (data not shown).

[5] = target: T1, full-length recombinant rat vitamin D receptor (Rattus norvegicus, UniProt P13053); assay: biochemical
T1 sequence (P13053 1-423): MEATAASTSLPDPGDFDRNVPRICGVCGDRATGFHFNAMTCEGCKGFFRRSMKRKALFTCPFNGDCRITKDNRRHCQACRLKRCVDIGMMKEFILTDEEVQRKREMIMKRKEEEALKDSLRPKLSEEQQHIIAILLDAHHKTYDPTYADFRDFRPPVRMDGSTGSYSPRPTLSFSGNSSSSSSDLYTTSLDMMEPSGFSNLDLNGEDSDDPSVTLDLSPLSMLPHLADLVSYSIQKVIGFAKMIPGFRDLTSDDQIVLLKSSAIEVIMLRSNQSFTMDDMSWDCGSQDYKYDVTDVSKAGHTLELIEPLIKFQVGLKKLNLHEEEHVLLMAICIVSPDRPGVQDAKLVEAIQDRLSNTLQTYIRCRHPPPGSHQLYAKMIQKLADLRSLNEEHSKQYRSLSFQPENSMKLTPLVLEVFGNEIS
Description: (§2) Full-length recombinant rat receptor was expressed in E. coli BL21 (DE3) Codon Plus RIL cells and purified to homogeneity using two different column chromatography systems. The first system was a nickel affinity resin that utilizes the C-terminal histidine tag on this protein. The protein that was eluted from this resin was further purified using ion exchange chromatography (S-Sepharose Fast Flow). Aliquots of the purified protein were quick frozen in liquid nitrogen and stored at −80° C. until use. For use in binding assays, the protein was diluted in TEDK50 (50 mM Tris, 1.5 mM EDTA, pH7.4, 5 mM DTT, 150 mM KCl) with 0.1% Chaps detergent. The receptor protein and ligand concentration was optimized such that no more than 20% of the added radiolabeled ligand was bound to the receptor.
(§3) Radiolabeled and unlabeled ligands were added to 100 mcl of the diluted protein at a final ethanol concentration of ≦10%, mixed and incubated overnight on ice to reach binding equilibrium. The following day, 100 mcl of hydroxylapatite slurry (50%) was added to each tube and mixed at 10-minute intervals for 30 minutes. The hydroxylapaptite was collected by centrifugation and then washed three times with Tris-EDTA buffer (50 mM Tris, 1.5 mM EDTA, pH 7.4) containing 0.5% Titron X-100. After the final wash, the pellets were transferred to scintillation vials containing 4 ml of Biosafe II scintillation cocktail, mixed and placed in a scintillation counter. Total binding was determined from the tubes containing only radiolabeled ligand.

[6] = target: T1, full-length recombinant rat vitamin D receptor
Description: as §2, §3

| SMILES | EC50 [1] [pM] | potency relative to 1,25(OH)2D3 in increasing transcription of the 24-hydroxylase gene [1] | mobilization of bone calcium at 780 pmol/day [2] | bone calcium mobilization activity (serum calcium), in words [2] | potency relative to the native hormone in releasing bone calcium stores [2] | intestinal calcium transport activity, in words [3] | potency on HL-60 cell differentiation compared to 1,25(OH)2D3, in words [4] | EC50 ([4]; Homo sapiens, HL-60, 96 h) [pM] | Ki [5] [pM] | binding affinity to the receptor compared to the standard 1,25-(OH)2D3, in words [6] | EC50 [4] [pM] |
| --- | --- | --- | --- | --- | --- | --- | --- | --- | --- | --- | --- |
| C=C1/C(=C\C=C2/CCC[C@]3(C)[C@@H]([C@@H](C)CCCC(C)(C)O)CC[C@@H]23)C[C@@H](O)C(=C)[C@@H]1O [2EG-S, (20S)-1α,25-dihydroxy-2-methylene-vitamin D3] | 5 | about 40 times | significant mobilization of bone calcium | more potent than the native hormone | at least 10 times | more potent than 1,25(OH)2D3; also recorded: very significant activity | more potent than 1,25(OH)2D3 | 60 | 100 | about the same affinity | – |
| C=C1/C(=C\C=C2/CCC[C@]3(C)[C@@H]([C@H](C)CCCC(C)(C)O)CC[C@@H]23)C[C@@H](O)C[C@@H]1O [1α,25-dihydroxyvitamin D3, reference compound] | 200 | – | – | increased serum calcium levels | – | – | – | – | – | – | 3000 |
| C=C1/C(=C\C=C2/CCC[C@]3(C)[C@@H]([C@H](C)CCCC(C)(C)O)CC[C@@H]23)C[C@@H](O)C(=C)[C@@H]1O [2EG-R, (20R)-1α,25-dihydroxy-2-methylene-vitamin D3] | 30 | about 10 times | significant mobilization of bone calcium | more potent than the native hormone | at least 10 times | more potent than 1,25(OH)2D3; also recorded: very significant activity | – | 7000 | 60 | about the same affinity | – |
| C=C1/C(=C/C=C2\CCC[C@]3(C)[C@@H]([C@@H](C)CCCC(C)(C)O)CC[C@@H]23)C[C@@H](O)C(=C)[C@@H]1O [T-2EG-S, (5E)-(20S)-1α,25-dihydroxy-2-methylene-vitamin D3] | – | about 10 times | significant mobilization of bone calcium | more potent than the native hormone | at least 10 times | about the same potency as 1,25(OH)2D3; also recorded: very significant activity | more potent than 1,25(OH)2D3 | 300 | 100 | about the same affinity | – |
